In PubChem BioAssay (NCI):
Where “and” joins values, the source holds several entries; their conditions need not be identical. Equal entries are not always repeated.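 Method: 48-hour compound exposure of cells in 96-well plates, five concentrations, linear interpolation of endpoints. GI50 is the concentration that inhibits growth by half. At the TGI there is no net growth.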

Key:
Test in all cases: inhibition of tumour cell growth, NCI panel, 48 h
A498 renal = tested on: A498 renal
CCRF-CEM leukemia = tested on: CCRF-CEM leukemia
HOP-62 NSCLC = tested on: HOP-62 NSCLC
M14 melanoma = tested on: M14 melanoma
OVCAR-5 ovarian = tested on: OVCAR-5 ovarian
RPMI-8226 leukemia = tested on: RPMI-8226 leukemia
RXF 393 renal = tested on: RXF 393 renal
TK-10 renal = tested on: TK-10 renal
UO-31 renal = tested on: UO-31 renal

Row | Structure (SMILES) | TGI (A498 renal) | TGI (CCRF-CEM leukemia) [µM] | TGI (HOP-62 NSCLC) [µM] | TGI (M14 melanoma) [µM] | TGI (OVCAR-5 ovarian) [µM] | TGI (RPMI-8226 leukemia) [µM] | TGI (RXF 393 renal) | TGI (TK-10 renal) [µM] | TGI (UO-31 renal) [µM] | GI50 (A498 renal) | GI50 (M14 melanoma) [µM] | GI50 (RPMI-8226 leukemia) | GI50 (CCRF-CEM leukemia) | GI50 (HOP-62 NSCLC)
1 | C[C@]12CC[C@@H]3c4ccc(O)cc4CC[C@H]3[C@@H]1C/C(=C\c1ccc(C#N)cc1)C2=O | > 100 µM | > 100 | > 100 | > 100 | > 100 | > 100 | 52.6 µM | > 100 | > 100 | – | – | – | – | –
2 | CC1(C)OC2COC3([C@@H]4OC(C)(C)O[C@@H]4CO)OC(C)(C)OC3C2O1 (some centres not stated) | > 100 µM | > 100 | > 100 | > 100 | > 100 | > 100 | > 100 µM | – | > 100 | – | – | – | – | –
3 | CON(C)C(=O)C1CCCO1 (configuration not stated) | > 100 µM | > 100 | > 100 | > 100 | > 100 | > 100 | – | > 100 | > 100 | – | – | – | – | –
4 | O=c1c2ccccc2sc2ccccc12 | > 100 µM | > 100 | > 100 | > 100 | > 100 | > 100 | > 100 µM | > 100 | > 100 | – | – | – | – | –
5 | CC1(C)CC(C#Cc2ccccc2)CC(C)(C)N1O | – | > 100 | 32.7 | 38.2 | 44.2 | 69.1 | 63.4 µM | 40.5 | 32.4 | – | – | – | – | –
6 | COc1cc(C(O)c2ccc3c(c2)OCO3)cc(OC)c1OC (configuration not stated) | > 100 µM | > 100 | > 100 | > 100 | > 100 | > 100 | – | > 100 | > 100 | – | – | – | – | –
7 | CC(=O)Oc1c(C)c(C)c2c(c1C)CCC(C)(CC(=O)OCCCCCCCCCCC[P+](c1ccccc1)(c1ccccc1)c1ccccc1)O2 (configuration not stated) | 2 µM | – | – | 1.56 | – | 1.15 | – | – | – | 0.385 µM | 0.408 | 0.237 µM | – | –
8 | O=S1(=O)C[C@@H](NCc2ccccc2)[C@H](NCc2ccccc2)C1 | – | > 100 | > 100 | > 100 | > 100 | > 100 | > 100 µM | > 100 | > 100 | – | – | – | – | –
9 | C=CCN1C(=O)/C(=C/c2ccc(C)cc2)N=C1SC1OC(COC(C)=O)C(OC(C)=O)C(OC(C)=O)C1OC(C)=O (configuration not stated) | > 100 µM and 69.5 µM | – | > 100 | > 100 | > 100 | > 100 | > 39.5 µM and 61.6 µM | > 100 | – | > 100 µM and 23.4 µM | – | > 100 µM and 20.2 µM | 12.4 µM and 2.25 µM | 5.17 µM and 47.4 µM
10 | O=C1/C(=C/c2cccc([N+](=O)[O-])c2)Sc2scc(-c3ccc([N+](=O)[O-])cc3)[n+]21 | – | – | 38.3 | > 100 | 51.2 | – | – | – | 24.1 | – | – | – | – | –
11 | O=C1OC(c2ccccc2)N(C(=O)c2ccccc2)C1Cc1ccc(OCc2ccccc2)cc1 (configuration not stated) | 33.5 µM | > 100 | > 100 | > 100 | > 100 | > 100 | – | > 100 | > 100 | – | – | – | – | –
12 | C=CC(=O)N1C/C(=C\c2ccc(Cl)cc2)C(=O)/C(=C/c2ccc(Cl)cc2)C1 | 1.25 µM | – | 1.02 | 0.735 | 2.1 | – | 0.659 µM | 4.01 | 1.17 | – | – | – | – | –
13 | O=C1CS(=O)(=O)C(c2cccc(Oc3ccccc3)c2)N1c1cc(Cl)ccc1Cl (configuration not stated) | – | > 100 | – | 43.1 | > 100 | – | – | 90.6 | 43.7 | – | – | – | – | –
14 | COP(=O)(OC)C(Nc1ccc(Cc2ccc(NC(c3ccco3)P(=O)(OC)OC)cc2)cc1)c1ccco1 (configuration not stated) | 56 µM | > 100 | 20.4 | > 100 | > 100 | – | 19.9 µM | 29.3 | > 100 | – | – | – | – | –
15 | CCN1C(=O)C(=C/C=C/c2ccc(N(CC)CC)cc2)C(=O)N(CC)C1=S | – | > 100 | 50.7 | > 100 | > 100 | > 100 | > 100 µM | > 100 | > 100 | – | – | – | – | –
16 | CN(C)CCCNC(=O)c1c(O)c2ccccc2n(C)c1=O | > 100 µM | > 100 | > 100 | – | > 100 | > 100 | > 100 µM | > 100 | > 100 | – | – | – | – | –
17 | COC(=O)N1N=C(c2ccccc2)C1c1ccccc1 (configuration not stated) | > 100 µM | > 100 | – | > 100 | > 100 | > 100 | > 100 µM | > 100 | 52.9 | – | – | – | – | –
18 | Cc1cccc(/C(Br)=C2/OC(=O)c3ccccc32)c1 | > 100 µM | > 100 | > 100 | > 100 | > 100 | > 100 | > 100 µM | > 100 | – | – | – | – | – | –

Row | Structure (SMILES) | TGI (A498 renal) | TGI (CCRF-CEM leukemia) [µM] | TGI (HOP-62 NSCLC) [µM] | TGI (M14 melanoma) [µM] | TGI (OVCAR-5 ovarian) [µM] | TGI (RPMI-8226 leukemia) [µM] | TGI (RXF 393 renal) | TGI (TK-10 renal) [µM] | TGI (UO-31 renal) [µM] | GI50 (A498 renal) | GI50 (M14 melanoma) [µM] | GI50 (RPMI-8226 leukemia) | GI50 (CCRF-CEM leukemia) | GI50 (HOP-62 NSCLC)
19 | Nc1ccc(-c2nn3c(COc4ccc(Cl)cc4)nnc3s2)cc1 | – | > 100 | > 100 | > 100 | > 100 | > 100 | > 100 µM | > 100 | > 100 | – | – | – | 10 µM | 20.2 µM
20 | S=C1NC2=C(CSC/C2=C\c2ccccc2)C(c2ccccc2)N1 (configuration not stated) | – | > 100 | > 100 | > 100 | > 100 | > 100 | > 100 µM | > 100 | > 100 | – | – | – | – | –
21 | Cc1cc(C)nc(NS(=O)(=O)c2ccc(NC(=O)c3cccc4c(NNc5ccc(S(=O)(=O)N=C(N)N)cc5)c5ccccc5nc34)cc2)n1 | > 50 µM | > 50 | > 50 | > 50 | – | > 50 | > 50 µM | > 50 | > 50 | – | – | – | – | –
22 | Cc1cc(NS(=O)(=O)c2ccc(NC(NC(=O)C(C(F)(F)F)C(F)(F)F)(C(F)(F)F)C(F)(F)F)cc2)no1 | – | > 100 | > 100 | > 100 | > 100 | > 100 | > 100 µM | > 100 | > 100 | – | – | – | – | –
23 | COc1cc([N+](=O)[O-])c(OC)c2c(Nc3ccc(S(=O)(=O)O)c4cc(S(=O)(=O)O)cc(S(=O)(=O)O)c34)cc(C)nc12 | > 100 µM | > 100 | > 100 | > 100 | > 100 | – | > 100 µM | > 100 | > 100 | – | – | – | – | –
24 | CC#CC(O)(C(=O)OC1CC(C)N(C)C(C)(C)C1)C1CCCC1 (configuration not stated) | – | > 100 | > 100 | > 100 | > 100 | > 100 | > 100 µM | > 100 | > 100 | – | – | – | – | –
25 | O=C1C(C(O)(C(F)(F)F)C(F)(F)F)CCC1C(O)(C(F)(F)F)C(F)(F)F (configuration not stated) | 6.23 µM | > 100 | – | 47 | > 100 | 13.5 | 26 µM | > 100 | 34.3 | – | – | – | – | –
26 | O=[N+]([O-])c1cccc2c(N=Nc3ccc4ccccc4c3O)c(O)cc(S(=O)(=O)O)c12 | – | 66.7 | > 100 | 51.2 | > 100 | > 100 | > 100 µM | > 100 | 56.1 | – | – | – | – | –
27 | O=S1SC(=S)C2C=CC=CC21 (configuration not stated) | > 100 µM | 39 | – | > 100 | > 100 | > 100 | > 100 µM | > 100 | > 100 | – | – | – | – | –
28 | O=C1c2cccc(O)c2C(=O)c2c(OC3OC(CO)C(O)C(O)C3O)cccc21 (configuration not stated) | > 100 µM | – | > 100 | 51.3 | > 100 | > 100 | 97.3 µM | > 100 | > 100 | – | – | – | – | –
29 | Cc1cc(C)c(/C=C(\C(=C/c2c(C)cc(C)cc2C)[N+](=O)[O-])[N+](=O)[O-])c(C)c1 | – | > 100 | > 100 | > 100 | > 100 | 70.9 | 90.4 µM | > 100 | > 100 | – | – | – | – | –
30 | CCOP(=O)(OCC)OC1CC(n2cc(C)c(=O)n(C)c2=O)OC1CO[Si](C)(C)C(C)(C)C (configuration not stated) | – | > 100 | > 100 | > 100 | > 100 | > 100 | > 100 µM | > 100 | 7.15 | – | – | – | – | –
31 | COc1nc2c(N3CCCC3)nc(N3CCNCC3)nc2nc1NCc1ccccc1 | – | 6.72 | 2.29 | 3.03 | 8.04 | 3.96 | 2.73 µM | 5.78 | 2.85 | – | – | – | – | –
32 | O=[N+]([O-])/C(Cl)=C(\NCCN/C(C(Cl)=C(Cl)Cl)=C(/Cl)[N+](=O)[O-])C(Cl)=C(Cl)Cl | > 100 µM | > 100 | > 100 | > 100 | > 100 | 65.8 | – | > 100 | > 100 | – | – | – | – | –
33 | COc1ccc([C@H]2C=[N+]([O-])O[C@H](OC3CCCC3)[C@@H]2OC(C)=O)cc1OC | > 100 µM | 20.1 | > 100 | 44.4 | – | > 100 | 29.8 µM | 68.2 | 40.6 | – | – | – | – | –
34 | C[C@H]1OC(=O)[C@@H]2N=NN(Cc3ccccc3)[C@H]12 | > 100 µM | – | > 100 | > 100 | > 100 | > 100 | > 100 µM | > 100 | > 100 | – | – | – | – | –
35 | O=C1C2=Nc3ccccc3C(O)(C(=O)O)N2c2ccccc21 (configuration not stated) | 80.9 µM | 94.9 | > 100 | – | 49.4 | > 100 | > 100 µM | > 100 | > 100 | – | – | – | – | –
